Measured values: PMC12693523, “Aldose Reductase Inhibition by Orthosiphon stamineus Extracts and Constituents Suggests Antioxidant Potential” (Molecules, 2025)

Molecular target: T1, aldose reductase (AKR1B1) (Homo sapiens, UniProt P15121)
T1 construct: recombinant human AKR1B1 protein (His Tag)
Assay: NADPH consumption at […] nm with DL-glyceraldehyde, recombinant enzyme
Format: biochemical

Compound | IC50
COc1ccc(-c2cc(=O)c3c(O)c(OC)c(OC)cc3o2)cc1O [EUP, eupatorin] | 203 ± 0.24 µM
O=C(/C=C/c1ccc(O)c(O)c1)O[C@H](Cc1ccc(O)c(O)c1)C(=O)O [RA, rosmarinic acid] | 41.4 ± 0.04 µM
